Drawing on patent publication US4680284A, “Modified phenylalanine peptidylaminodiols” (Abbott Laboratories, priority 1986, dated 1987), this text covers IC50 for eight molecules.

Usually IC50 stands for the midpoint of a concentration-inhibition curve. A lower IC50 goes with higher potency.

The assay deals with T1, human renal renin (Homo sapiens, UniProt P00797).
T1 construct: human renal renin, free from acid proteolytic activity; from tissue
T1 sequence (P00797 67-406): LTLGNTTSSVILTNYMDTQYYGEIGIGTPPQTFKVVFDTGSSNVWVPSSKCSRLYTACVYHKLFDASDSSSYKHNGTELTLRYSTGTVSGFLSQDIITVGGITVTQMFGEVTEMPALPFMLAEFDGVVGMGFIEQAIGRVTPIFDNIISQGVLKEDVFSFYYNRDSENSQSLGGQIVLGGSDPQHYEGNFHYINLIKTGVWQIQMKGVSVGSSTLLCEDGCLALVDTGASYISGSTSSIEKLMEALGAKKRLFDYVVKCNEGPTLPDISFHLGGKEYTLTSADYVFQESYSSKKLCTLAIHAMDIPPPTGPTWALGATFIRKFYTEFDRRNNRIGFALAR
Kind of assay: In vitro inhibition of human renal renin (angiotensin I formation measured by radioimmunoassay). The note with it: human renal renin with human renin substrate (angiotensinogen), 37° C., pH 6.0. It is filed as biochemical.
Consider `CC(C)C[C@H](O)[C@H](O)[C@H](CC1CCCCC1)NC(=O)[C@H](Cc1c[nH]cn1)NC(=O)C1Cc2ccccc2C(=O)N1` (stereo partly drawn) [Example 15, OTIC-His Amide of 2(S)-Amino-1-cyclohexyl-3(R),4(S)-dihydroxy-6-methylheptane], for which the IC50 was 100 nM. The result for `CC(C)C[C@H](O)[C@H](O)[C@H](CC1CCCCC1)NC(=O)[C@H](Cc1c[nH]cn1)NC(=O)[C@@](C)(N)Cc1ccccc1` [Example 17, AMPA-His Amide of 2(S)-Amino-1-cyclohexyl-3(R),4(S)-dihydroxy-6-methylheptane] reads 10 nM; that for `CC(C)C[C@H](O)[C@H](O)[C@H](CC1CCCCC1)NC(=O)[C@H](Cc1c[nH]cn1)NC(=O)C(N)(Cc1ccccc1)Cc1ccccc1` [Example 21, ADBA-His Amide of 2(S)-Amino-1-cyclohexyl-3(R),4(S)-dihydroxy-6-methylheptane], 25 nM. The result for `CC(C)C[C@H](O)[C@H](O)[C@H](CC1CCCCC1)NC(=O)[C@H](Cc1c[nH]cn1)NC(=O)C1(N)Cc2ccccc2C1` [Example 7, AICA-His Amide of 2(S)-Amino-1-cyclohexyl-3(R),4(S)-dihydroxy-6-methylheptane] reads 300 nM; that for `CC(=O)N[C@@](C)(Cc1ccccc1)C(=O)N[C@@H](Cc1c[nH]cn1)C(=O)N[C@@H](CC1CCCCC1)[C@@H](O)[C@@H](O)CC(C)C` [Example 19, Acetyl-AMPA-His Amide of 2(S)-Amino-1-cyclohexyl-3(R),4(S)-dihydroxy-6-methylheptane], 9 nM.

With `CCOC(=O)NC1(C(=O)N[C@@H](Cc2c[nH]cn2)C(=O)N[C@@H](CC2CCCCC2)[C@@H](O)[C@@H](O)CC(C)C)CCc2ccccc2C1` (stereo partly drawn) [Example 10, EtOC-(R,S)-ATCA-His Amide of 2(S)-Amino-1-cyclohexyl-3(R),4(S)-dihydroxy-6-methylheptane], the IC50 turned out to be 5 nM. Consider `CCOC(=O)NC1(C(=O)N[C@@H](Cc2c[nH]cn2)C(=O)N[C@@H](CC2CCCCC2)[C@@H](O)[C@@H](O)CC(C)C)Cc2ccccc2C1` [Example 5, EtOC-AICA-His Amide of 2(S)-Amino-1-cyclohexyl-3(R),4(S)-dihydroxy-6-methylheptane], for which the IC50 was 15 nM. In the case of `CCOC(=O)N1Cc2ccccc2CC1C(=O)N[C@@H](Cc1c[nH]cn1)C(=O)N[C@@H](CC1CCCCC1)[C@@H](O)[C@@H](O)CC(C)C` (stereo partly drawn) [Example 13, EtOC-TIC-His Amide of 2(S)-Amino-1-cyclohexyl-3(R),4(S)-dihydroxy-6-methylheptane], the IC50 is 10 nM.
